# Measured values as given in the supplement of paper PMC10307832.
# Legend:
# Experiment in all cases: relative viability (nuclei count vs DMSO), 5 days (fraction); higher = more cells survive
# XMD14-99 + OSI-027 = compound: CN1CCN(CC1)C2=CC(=C(C=C2)NC3=NC(=C(S3)C(=O)C4=C(C=CC=C4Cl)Cl)N)OC [XMD14-99] + COc1cccc2cc(-c3nc([C@H]4CC[C@H](C(=O)O)CC4)n4ncnc(N)c34)[nH]c12 [OSI-027] (partner 0.5 µM)
# Outline: (§1)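 Relative viability divides the nuclei count in treated wells by that in vehicle wells. Lung cancer cell lines were seeded in 1536-well plates, dosed by pin tool the next day, and fixed and stained after 5 days in one step with final 0.05% Triton X-100, 1% formaldehyde and 1 ug/ml Hoechst. Dosing was a single drug or a fixed anchor-drug dose plus five library-drug doses (not always all listed) in √10 steps, and values are medians of duplicate plates imaged at 4×.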
# XMD14-99 + Phenformin = compound: CN1CCN(CC1)C2=CC(=C(C=C2)NC3=NC(=C(S3)C(=O)C4=C(C=CC=C4Cl)Cl)N)OC [XMD14-99] + N=C(N)NC(=N)NCCc1ccccc1 [Phenformin] (partner 250 µM)
# Outline: as §1
# XMD14-99 + Linsitinib = compound: CN1CCN(CC1)C2=CC(=C(C=C2)NC3=NC(=C(S3)C(=O)C4=C(C=CC=C4Cl)Cl)N)OC [XMD14-99] + C[C@]1(O)C[C@@H](c2nc(-c3ccc4ccc(-c5ccccc5)nc4c3)c3c(N)nccn32)C1 [Linsitinib] (partner 1 µM)
# Outline: as §1
# AZD1208 + Luminespib = compound: N[C@@H]1CCCN(c2c(/C=C3\SC(=O)NC3=O)cccc2-c2ccccc2)C1 [AZD1208] + CCNC(=O)c1noc(-c2cc(C(C)C)c(O)cc2O)c1-c1ccc(CN2CCOCC2)cc1 [Luminespib] (partner 0.01 µM)
# Outline: as §1
Cell Line,relative viability (XMD14-99 + OSI-027; first compound 0.08 µM),relative viability (XMD14-99 + OSI-027; first compound 0.8 µM),relative viability (XMD14-99 + OSI-027; first compound 2.53 µM),relative viability (XMD14-99 + OSI-027; first compound 8 µM),relative viability (XMD14-99 + Phenformin; first compound 0.08 µM),relative viability (XMD14-99 + Phenformin; first compound 0.8 µM),relative viability (XMD14-99 + Phenformin; first compound 2.53 µM),relative viability (XMD14-99 + Phenformin; first compound 8 µM),relative viability (XMD14-99 + Linsitinib; first compound 0.08 µM),relative viability (XMD14-99 + Linsitinib; first compound 0.8 µM),relative viability (XMD14-99 + Linsitinib; first compound 2.53 µM),relative viability (XMD14-99 + Linsitinib; first compound 8 µM),relative viability (AZD1208 + Luminespib; first compound 0.08 µM),relative viability (AZD1208 + Luminespib; first compound 0.253 µM),relative viability (AZD1208 + Luminespib; first compound 0.8 µM),relative viability (AZD1208 + Luminespib; first compound 2.53 µM),relative viability (AZD1208 + Luminespib; first compound 8 µM)
RERF-LC-KJ,0.572,0.556,0.527,0.366,0.425,0.45,0.375,0.388,0.878,0.888,0.873,0.743,1.13,1.22,1.14,1.07,0.838
BEN,0.29,0.295,0.312,0.264,0.26,0.292,0.248,0.257,0.872,0.816,0.81,0.762,0.254,0.271,0.285,0.244,0.303
NCI-H1666,0.881,0.731,0.799,0.651,0.567,0.553,0.494,0.533,0.809,0.834,0.704,0.625,0.977,1.07,0.911,1,1.01
LC-2-ad,0.845,0.866,0.771,0.679,0.611,0.554,0.58,0.505,0.892,0.817,0.83,0.563,0.943,0.984,0.968,0.962,1.02
SW 1573,0.629,0.758,0.599,0.493,0.357,0.386,0.413,0.363,0.723,0.785,0.782,0.885,0.292,0.429,0.198,0.152,0.208
